Reference: the supplement of paper PMC10307832

Assays:
Assay in all cases: relative viability (nuclei count vs DMSO), 5 days (fraction); higher = more cells survive
Sulindac + Luminespib = compound: CC1=C(CC(=O)O)c2cc(F)ccc2/C1=C\c1ccc([S+](C)[O-])cc1 [Sulindac] + CCNC(=O)c1noc(-c2cc(C(C)C)c(O)cc2O)c1-c1ccc(CN2CCOCC2)cc1 [Luminespib] (partner 0.01 µM)
How it was run: (§1)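 Lung cancer cell lines, seeded in 1536-well plates, were treated the following day by pin tool with a single drug or with five library-drug doses (not always all listed) in √10 steps on top of a fixed anchor-drug dose. Cells were fixed and nuclei stained in one step after 5 days, and nuclei were counted. Relative viability is the nuclei count for treated wells divided by that for vehicle wells, reported as medians of duplicate plates.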

[1] = compound: O=c1[nH]cc(F)c(=O)[nH]1 [5-Fluorouracil] + CS(=O)(=O)N1CCN(Cc2cc3nc(-c4cccc5[nH]ncc45)nc(N4CCOCC4)c3s2)CC1 [Pictilisib] (partner 1 µM)
How it was run: as §1

Sulindac + AZD7762 = compound: CC1=C(CC(=O)O)c2cc(F)ccc2/C1=C\c1ccc([S+](C)[O-])cc1 [Sulindac] + NC(=O)Nc1cc(-c2cccc(F)c2)sc1C(=O)N[C@H]1CCCNC1 [AZD7762] (partner 0.2 µM)
How it was run: as §1

Sulindac + Lapatinib = compound: CC1=C(CC(=O)O)c2cc(F)ccc2/C1=C\c1ccc([S+](C)[O-])cc1 [Sulindac] + CS(=O)(=O)CCNCc1ccc(-c2ccc3ncnc(Nc4ccc(OCc5cccc(F)c5)c(Cl)c4)c3c2)o1 [Lapatinib] (partner 2 µM)
How it was run: as §1

Cell Line	relative viability (Sulindac + Luminespib; first compound 0.08 µM)	relative viability (Sulindac + Luminespib; first compound 0.253 µM)	relative viability (Sulindac + Luminespib; first compound 0.8 µM)	relative viability (Sulindac + Luminespib; first compound 2.53 µM)	relative viability (Sulindac + Luminespib; first compound 8 µM)	relative viability ([1]; first compound 0.02 µM)	relative viability ([1]; first compound 0.2 µM)	relative viability ([1]; first compound 0.6325 µM)	relative viability ([1]; first compound 2 µM)	relative viability (Sulindac + AZD7762; first compound 0.08 µM)	relative viability (Sulindac + AZD7762; first compound 0.253 µM)	relative viability (Sulindac + AZD7762; first compound 0.8 µM)	relative viability (Sulindac + AZD7762; first compound 2.53 µM)	relative viability (Sulindac + AZD7762; first compound 8 µM)	relative viability (Sulindac + Lapatinib; first compound 0.253 µM)	relative viability (Sulindac + Lapatinib; first compound 0.8 µM)	relative viability (Sulindac + Lapatinib; first compound 2.53 µM)	relative viability (Sulindac + Lapatinib; first compound 8 µM)	relative viability (Sulindac + Lapatinib; first compound 0.08 µM)
NCI-H1666	1.04	1.03	0.955	1	1.1	0.659	0.293	0.292	0.285	0.869	0.878	0.776	0.847	0.945	0.738	0.491	0.696	0.753	–
LOU-NH91	0.322	0.322	0.314	0.328	0.401	0.512	0.47	0.388	0.34	0.781	0.809	0.627	0.742	0.817	0.72	0.682	0.669	0.831	0.899
LXF-289	0.821	0.847	0.58	0.715	0.611	0.787	0.689	0.421	0.295	1.15	1.15	0.987	1.21	1.24	0.972	0.87	0.919	0.941	0.956
NCI-H1299	–	–	–	–	–	0.953	0.634	0.474	0.248	–	–	–	–	–	0.927	0.96	0.942	1.06	1.06
HARA	0.731	1	0.77	0.671	0.963	0.562	0.518	0.321	0.373	0.339	0.392	0.288	0.294	0.307	0.835	–	0.858	0.893	0.989
LU99A	0.164	0.315	0.196	0.243	0.263	0.289	0.314	0.317	0.261	0.324	0.467	0.433	0.327	0.404	1.11	0.854	0.869	1.01	1.33
201T	1.13	1.09	1.07	1.04	1.09	0.759	0.597	0.442	0.373	0.647	0.628	0.868	0.661	0.596	0.974	1.04	0.997	1.07	1.05
HCC-827	0.566	0.916	0.475	0.606	0.412	0.749	1.03	0.656	0.478	0.218	0.222	0.198	0.204	0.244	0.183	0.192	0.181	0.184	0.247
NCI-H1703	–	–	–	–	–	0.283	0.25	0.275	0.24	0.129	0.14	–	0.111	0.17	1.37	0.97	1.25	1.08	1.37
